{"source": "patent US5169836A", "about": "“Inhibitors of platelet binding” (Trustees of the University of Penna., priority 1988, dated 1992)", "key": {"[1]": {"target": "T1, glycoprotein IIb-IIIa on activated platelets (Homo sapiens, UniProt P05106+P08514)", "T1 construct": "Venous blood from normal donors was drawn; endogenous in cells", "T1 sequence (P08514 32-887 limits assumed)": "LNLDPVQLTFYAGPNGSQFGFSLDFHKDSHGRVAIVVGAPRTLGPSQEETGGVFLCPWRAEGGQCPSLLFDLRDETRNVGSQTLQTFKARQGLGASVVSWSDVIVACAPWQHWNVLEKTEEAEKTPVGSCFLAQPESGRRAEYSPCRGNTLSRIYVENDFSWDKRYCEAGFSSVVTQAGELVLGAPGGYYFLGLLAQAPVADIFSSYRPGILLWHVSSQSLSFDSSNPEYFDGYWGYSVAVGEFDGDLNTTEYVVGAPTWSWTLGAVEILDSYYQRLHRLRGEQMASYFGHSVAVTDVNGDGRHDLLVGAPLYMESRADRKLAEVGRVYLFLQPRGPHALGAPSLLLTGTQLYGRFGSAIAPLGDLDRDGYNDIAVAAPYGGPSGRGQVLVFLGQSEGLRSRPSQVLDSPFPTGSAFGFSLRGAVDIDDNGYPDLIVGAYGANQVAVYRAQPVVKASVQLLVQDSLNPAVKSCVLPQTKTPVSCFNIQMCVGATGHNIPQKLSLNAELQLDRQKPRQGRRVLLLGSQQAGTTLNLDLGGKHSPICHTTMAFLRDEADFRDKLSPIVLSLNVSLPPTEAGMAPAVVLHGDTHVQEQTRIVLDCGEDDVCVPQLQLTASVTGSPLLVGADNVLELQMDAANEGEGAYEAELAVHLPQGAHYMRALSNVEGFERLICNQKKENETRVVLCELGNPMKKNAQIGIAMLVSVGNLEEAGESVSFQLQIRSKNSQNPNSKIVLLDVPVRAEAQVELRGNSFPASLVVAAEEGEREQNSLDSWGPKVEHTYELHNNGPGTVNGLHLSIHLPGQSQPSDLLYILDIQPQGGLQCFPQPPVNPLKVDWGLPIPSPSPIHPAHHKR", "T1 sequence (P05106 27-788)": "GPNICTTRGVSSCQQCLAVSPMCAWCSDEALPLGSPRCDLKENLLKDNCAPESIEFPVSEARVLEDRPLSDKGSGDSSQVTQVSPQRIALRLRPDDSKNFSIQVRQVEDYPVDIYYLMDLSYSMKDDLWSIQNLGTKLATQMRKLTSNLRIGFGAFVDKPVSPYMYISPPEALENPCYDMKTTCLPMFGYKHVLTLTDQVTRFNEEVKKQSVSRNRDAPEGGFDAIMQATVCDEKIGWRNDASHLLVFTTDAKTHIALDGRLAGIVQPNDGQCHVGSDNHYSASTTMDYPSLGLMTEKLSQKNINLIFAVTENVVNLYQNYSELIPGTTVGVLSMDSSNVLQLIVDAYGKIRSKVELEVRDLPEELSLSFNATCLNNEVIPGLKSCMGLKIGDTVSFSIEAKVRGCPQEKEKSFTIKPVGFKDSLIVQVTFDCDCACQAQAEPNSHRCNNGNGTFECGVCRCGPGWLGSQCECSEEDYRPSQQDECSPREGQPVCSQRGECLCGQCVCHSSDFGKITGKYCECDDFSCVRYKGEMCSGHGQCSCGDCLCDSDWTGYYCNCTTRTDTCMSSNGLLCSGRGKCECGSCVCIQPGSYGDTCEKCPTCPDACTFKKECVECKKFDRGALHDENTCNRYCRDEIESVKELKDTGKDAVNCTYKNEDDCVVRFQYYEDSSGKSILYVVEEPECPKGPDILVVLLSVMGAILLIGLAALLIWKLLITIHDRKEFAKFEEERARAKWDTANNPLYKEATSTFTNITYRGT", "assay": "Binding of FITC-PAC1 to activated gel-filtered platelets, flow cytometry", "details": "for effect on FITC-PAC1 binding: platelets activated with ADP and epinephrine (10 μM each), peptide 0-100 μM", "excerpt": "The binding of PAC1 monoclonal antibody and fibrinogen to gel-filtered human blood platelets was examined by fluorescence-activated flow cytometry using the procedures of Shattil et al., Blood, 70, 307-315 (1987). Venous blood from normal donors was drawn into 1/7 vol of NIH formula A acid-citrate-dextrose solution, platelet-rich plasma was obtained, and the platelets were gel-filtered into an isotonic HEPES-containing buffer at pH 7.4, as described in Shattil et al., Blood, 68, 1224-1231 (1986). To examine the effect of synthetic peptides on PAC1 binding to activated platelets, 5×10^7 platelets were incubated for 15 min at room temperature in a final vol of 50 μl in the presence of varying concentrations of (0-100 μM) of peptide, 40 μg/ml fluorescein-labeled PAC1 (FITC-PAC1 ), 10 μM ADP and 10 μM epinephrine. Then, 500 μl of the isotonic buffer was added and antibody binding was quantitated using a flow cytometer, as described in Shattil et al., Blood, 70, 307-315 (1987). Fibrinogen binding to platelets was measured using the same incubation system, except that 50 μg/ml of purified human fibrinogen as described in Bennett et al., J. Clin. Invest., 64, 1393-1400 (1979) was added and the monoclonal antibody, FITC-9F9, was used instead of FITC-PAC1. […] Abrams et al., Blood, 70, 335a (1987). […] Shattil et al., Blood 70, 307-315 (1987). The amount of platelet-bound FITC-PAC1 or FITC-9F9 was determined by analyzing 10,000 platelets for the extent of fluorescence at 488 nm, and binding expressed as the mean fluorescence intensity in arbitrary fluorescence units."}, "GMP-140": {"target": "T2, GMP-140 (Homo sapiens, UniProt P16109)", "T2 construct": "endogenous in cells", "T2 sequence (P16109 42-830)": "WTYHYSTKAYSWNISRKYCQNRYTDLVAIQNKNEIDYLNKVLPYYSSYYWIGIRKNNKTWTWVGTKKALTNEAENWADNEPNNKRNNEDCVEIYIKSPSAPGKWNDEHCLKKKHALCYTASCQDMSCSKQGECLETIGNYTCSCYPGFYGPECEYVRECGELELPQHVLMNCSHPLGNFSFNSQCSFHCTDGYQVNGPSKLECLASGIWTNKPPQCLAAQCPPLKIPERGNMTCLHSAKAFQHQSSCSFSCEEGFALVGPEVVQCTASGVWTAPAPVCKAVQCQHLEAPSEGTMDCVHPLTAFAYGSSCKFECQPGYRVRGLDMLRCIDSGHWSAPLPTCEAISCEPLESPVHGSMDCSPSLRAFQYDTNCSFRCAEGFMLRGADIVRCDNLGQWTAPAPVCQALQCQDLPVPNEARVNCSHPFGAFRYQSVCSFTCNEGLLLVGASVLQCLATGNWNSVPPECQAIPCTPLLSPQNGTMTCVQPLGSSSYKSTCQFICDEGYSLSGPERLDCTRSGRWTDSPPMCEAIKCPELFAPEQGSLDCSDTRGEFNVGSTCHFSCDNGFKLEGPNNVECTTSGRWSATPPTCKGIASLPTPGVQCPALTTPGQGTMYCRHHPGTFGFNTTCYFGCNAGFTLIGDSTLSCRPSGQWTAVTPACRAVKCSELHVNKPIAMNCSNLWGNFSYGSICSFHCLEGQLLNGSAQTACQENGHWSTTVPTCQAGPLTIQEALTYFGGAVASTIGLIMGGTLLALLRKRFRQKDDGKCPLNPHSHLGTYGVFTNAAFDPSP", "assay": "Binding of FITC-S12 to activated platelets, flow cytometry", "details": "activated platelets (ADP and epinephrine, 10 μM each)", "method": "(§1) Gel-filtered platelets were incubated in the presence of Arg-Tyr-Asp-21mer and various FITC-labeled anti-platelet monoclonal antibodies. Monoclonal antibody binding was determined by flow cytometry. In the case of antibody AP1 (specific for platelet glycoprotein Ib) (unfilled circles), the platelets were not activated. In the case of antibodies PAC1 (specific for activated glycoproteins IIb-IIIa) (filled circles), BIB5 (specific for glycoprotein IIb) (filled squares) and S12 (specific for GMP-140) (unfilled triangles), the platelets were activated with ADP and epinephrine (10 μM each). The data shown are from a single experiment representative of two runs performed as described.\n(§2) The binding of PAC1 monoclonal antibody and fibrinogen to gel-filtered human blood platelets was examined by fluorescence-activated flow cytometry using the procedures of Shattil et al., Blood, 70, 307-315 (1987). […] Then, 500 μl of the isotonic buffer was added and antibody binding was quantitated using a flow cytometer, as described in Shattil et al., Blood, 70, 307-315 (1987). Fibrinogen binding to platelets was measured using the same incubation system, except that 50 μg/ml of purified human fibrinogen as described in Bennett et al., J. Clin. Invest., 64, 1393-1400 (1979) was added and the monoclonal antibody, FITC-9F9, was used instead of FITC-PAC1. […]"}, "[2]": {"target": "T3, blood platelet membrane fibrinogen receptor, glycoprotein IIb-IIIa (Homo sapiens, UniProt P05106+P08514)", "T3 construct": "Venous blood from normal donors was drawn; endogenous in cells", "T3 sequence (P08514 32-887 limits assumed)": "T1 sequence (P08514 32-887 limits assumed)", "T3 sequence (P05106 27-788)": "T1 sequence (P05106 27-788)", "assay": "Fibrinogen binding to activated gel-filtered platelets, measured with FITC-9F9 by flow cytometry", "details": "50 μg/ml fibrinogen", "excerpt": "The binding of PAC1 monoclonal antibody and fibrinogen to gel-filtered human blood platelets was examined by fluorescence-activated flow cytometry using the procedures of Shattil et al., Blood, 70, 307-315 (1987). Venous blood from normal donors was drawn into 1/7 vol of NIH formula A acid-citrate-dextrose solution, platelet-rich plasma was obtained, and the platelets were gel-filtered into an isotonic HEPES-containing buffer at pH 7.4, as described in Shattil et al., Blood, 68, 1224-1231 (1986). […] Then, 500 μl of the isotonic buffer was added and antibody binding was quantitated using a flow cytometer, as described in Shattil et al., Blood, 70, 307-315 (1987). Fibrinogen binding to platelets was measured using the same incubation system, except that 50 μg/ml of purified human fibrinogen as described in Bennett et al., J. Clin. Invest., 64, 1393-1400 (1979) was added and the monoclonal antibody, FITC-9F9, was used instead of FITC-PAC1. […] Previous studies have established that the amount of FITC-labeled antibody bound to platelets determined by flow cytometry is related in a linear fashion to the amount of antibody bound determined in a conventional radioligand binding assay. […]\nThe ability of Arg-Tyr-Asp-21mer to inhibit fibrinogen binding to activated platelets was also tested. Fibrinogen binding was assessed by flow cytometry using a FITC-labeled anti-fibrinogen monoclonal antibody, 9F9. […]"}, "glycoprotein IIb": {"target": "T4, glycoprotein IIb (Homo sapiens, UniProt P08514)", "T4 construct": "endogenous in cells", "T4 sequence (P08514 32-887 limits assumed)": "T1 sequence (P08514 32-887 limits assumed)", "assay": "Binding of FITC-B1B5 to activated platelets, flow cytometry", "details": "activated platelets (ADP and epinephrine, 10 μM each)", "method": "as §1, §2"}, "platelet glycoprotein Ib": {"target": "T5, platelet glycoprotein Ib (Homo sapiens, UniProt P07359)", "T5 construct": "platelet glycoprotein Ib on resting platelets; endogenous in cells", "T5 sequence (P07359 17-652)": "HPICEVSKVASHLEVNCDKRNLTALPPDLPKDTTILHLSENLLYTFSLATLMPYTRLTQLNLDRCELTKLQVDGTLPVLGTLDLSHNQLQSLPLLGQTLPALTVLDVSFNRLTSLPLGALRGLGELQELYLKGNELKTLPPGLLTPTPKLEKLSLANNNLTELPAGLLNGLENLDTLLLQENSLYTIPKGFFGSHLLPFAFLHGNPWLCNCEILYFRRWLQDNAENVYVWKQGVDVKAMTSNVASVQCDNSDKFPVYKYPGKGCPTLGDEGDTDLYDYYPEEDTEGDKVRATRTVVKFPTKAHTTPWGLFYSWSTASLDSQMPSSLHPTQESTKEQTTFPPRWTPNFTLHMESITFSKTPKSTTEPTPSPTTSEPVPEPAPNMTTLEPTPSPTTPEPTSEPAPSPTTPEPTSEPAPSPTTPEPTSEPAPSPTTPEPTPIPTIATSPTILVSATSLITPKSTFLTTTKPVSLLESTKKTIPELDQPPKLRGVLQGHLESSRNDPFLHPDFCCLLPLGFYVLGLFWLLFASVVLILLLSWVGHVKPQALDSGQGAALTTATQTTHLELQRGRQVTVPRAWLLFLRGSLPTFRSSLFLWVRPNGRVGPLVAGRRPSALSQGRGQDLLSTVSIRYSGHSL", "T5 sequence (P13224 26-206 partner)": "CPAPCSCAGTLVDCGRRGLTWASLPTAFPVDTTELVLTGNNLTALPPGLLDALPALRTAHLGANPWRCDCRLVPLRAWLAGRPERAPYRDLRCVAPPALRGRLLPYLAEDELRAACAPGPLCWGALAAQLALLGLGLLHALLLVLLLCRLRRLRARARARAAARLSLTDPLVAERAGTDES", "T5 sequence (P14770 17-177 partner)": "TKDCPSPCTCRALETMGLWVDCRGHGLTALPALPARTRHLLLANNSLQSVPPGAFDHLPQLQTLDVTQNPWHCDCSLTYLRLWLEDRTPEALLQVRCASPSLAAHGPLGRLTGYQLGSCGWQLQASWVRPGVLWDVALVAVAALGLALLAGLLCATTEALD", "assay": "Binding of FITC-AP1 to resting platelets, flow cytometry", "method": "as §1, §2"}}, "note": "Where no end group is shown, it is not given here."}
{"substance": "ARRSPSYYRYDGAGPYYAMDY [Arg-Tyr-Asp-21mer]", "values": [{"measurement": "Ki", "setting": "[1]; Dixon plot analysis, five separate experiments, ±SE, read-out: apparent Ki for inhibition of PAC1 binding", "value": "10.2 ± 4.3", "unit": "µM"}, {"measurement": "IC50", "setting": "[1]; platelets activated with 10 μM ADP and 10 μM epinephrine, 40 μg/ml FITC-PAC1, 15 min, room temperature, read-out: IC50 for inhibition of the binding of FITC-PAC1 to platelets", "value": "20 to 30", "unit": "µM"}, {"measurement": "effect on FITC-PAC1 binding", "setting": "[1]", "value": "marked effect"}, {"measurement": "effect on the binding of FITC-S12 to GMP-140", "setting": "GMP-140", "value": "no effect"}, {"measurement": "Ki", "setting": "[2]; Dixon plot analysis, three experiments, ADP plus epinephrine, read-out: apparent Ki for inhibition of fibrinogen binding", "value": "5.5 ± 3.5", "unit": "µM"}, {"measurement": "effect on the binding of FITC-B1B5 to glycoprotein IIb", "setting": "glycoprotein IIb", "value": "no effect"}, {"measurement": "effect on the binding of FITC-AP1 to platelet glycoprotein Ib", "setting": "platelet glycoprotein Ib", "value": "no effect"}]}
{"substance": "NH2 -Tyr-Val-Asp-Gly-Asp-Gln-Cys-(Acm)-Glu-Ser-Asn-Pro-Cys-Leu-Asn-Gly-Gly-Met(O)-Cys-(Acm)-Lys-Asp-Asp-Ile-Asn-Ser-Tyr-Gly-Cys-Phe-COOH [unrelated-28mer, reference compound]", "values": [{"measurement": "effect on FITC-PAC1 binding", "setting": "[1]", "value": "no effect"}, {"measurement": "effect on 9F9 binding (fibrinogen binding)", "setting": "[2]; platelets activated with ADP plus epinephrine", "value": "no effect"}]}
